Experimental data as given in patent US20240415790A1, “A COMPOSITION FOR USE IN THE TREATMENT OF INTERVERTEBRAL DISC HERNIATION” (STAYBLE THERAPEUTICS AB, priority 2020, published 2024).

Legend:
porcine NP and AF = experiment: Macroscopic and histological evaluation of porcine IVD after intradiscal or external LA (series 1 and 2); type: in vivo; conditions: pig
Experimental: The pigs were placed on the right side. A 6 cm long incision was made from the costal arch to the iliac crest, just lateral to the lateral processes. The lumbar IVDs were approached by a retroperitoneal technique. The L3/4 IVD was incised and 0.2 mL of the LA-formulation (n=6) or the placebo (n=2) was injected under fluoroscopic guidance. The LA-formulation was composed of LA (120 mg/mL) and iohexol (180 mg I/mL) while placebo consisted of iohexol only. The concentration was determined based on the pilot experiments on the effects of LA on collagen secretion from human NP cells (as described in WO 2017/046030). In this set of in vivo experiments, the pH of the placebo formulation was adjusted to the same as the active formulation (about 1.5) using hydrochloric acid. The adjacent IVDs were not injected and served as negative controls. The volume of the pig NP is about 1 mL and it was estimated that 0.2 mL would be an appropriate injection volume. The height and width of normally appearing NP (FIG. 6a) in the anteroposterior (short vertical double arrow) and bilateral (short horizontal double arrow) directions, respectively, were measured and expressed in relation to the height (long vertical double arrow), and width (long horizontal double arrow) of the IVD. […] The group data for NP height as percent of total IVD height are shown in FIG. 7 and the corresponding data for NP width are illustrated in FIG. 8. Further, the IVD was cut in half and photographed. The bilateral width and anteroposterior height of normally appearing NP was measured and expressed as percent of the total IVD width and height, respectively, as depicted in FIGS. 7 and 8. The aim of the second series (including 16 pigs) was to assess the safety and efficacy of the treatment and was part of the regulatory documentation required by the Swedish Medical Products Agency to initiate studies in humans. All procedures were as described above, with the following exceptions. […] In one group of animals, LA or placebo was applied onto the IVD outside the spinal foramen (external application) to assess any tissue damage resulting from leakage from the IVD or a misdirected injection. Due to this experimental design, spinal flexural stiffness was not measured in these pigs. The only other difference between the two series was that exposed tissues were evaluated histologically in the second but not first series. The lumbar spine was removed en bloc and any pathological changes were assessed macroscopically and photographed in extradiscal tissue onto which LA had been applied. Specimens of spinal nerves and muscle tissue were collected, fixed in 10% formalin, and processed for microscopy with hematoxylin/eosin staining. Injected IVDs were cut in half, inspected macroscopically, and photographed. Samples of the IVD were collected and processed for microscopy with hematoxylin/eosin. These turned out to include AF but very little NP so in order to obtain an improved overview of the IVD, the IVDs with adhering vertebrae were decalcified to enable preparation of axial sections of the whole IVD which were stained with Massons's trichrome. FIG. 9 illustrates effects of LA on the AF (A,B) and NP (C-J). LA or placebo (0.2 mL) was injected into IVDs of anesthetized pigs. The animals were sacrificed 4 or 12 weeks post injection and the IVDs were sectioned in half. After fixation in 10% formalin, decalcification and paraffin embedding, sections were cut at 5 μm and stained with hematoxylin&eosin (A,B) or Masson's trichrome (C-J). Fibrocartilagenous cells can be seen in the AF from untreated IVDs (arrows in A) but frequently, multicellular chondrons appeared after injection of LA (240 mg/mL, 12 weeks survival; arrows in B). NP of an untreated (extradiscal injection) IVD (C) consists of islets of notochordal cells (asterisk) embedded in weakly stained extracellular matrix. In LA-treated NP, collagenous fibers can be seen (asterisks in D; 120 mg/mL LA, 4 weeks survival and E; 120 mg/mL LA, 12 weeks survival). […]

collagen II = experiment: Immunohistochemical analysis of collagen II in porcine IVD; type: in vivo; conditions: pig, LA 60 mg/mL, treated vs untreated IVDs
Experimental: Since effects of LA on the NP in the subsequent clinical study was planned to be assessed using MRI, the third series focused on the effects of LA (0.2 mL, 60 mg/mL) on sclerotization as measured by T2-weighted MRI. In addition, effects of LA on the expression of collagen I and II were studied by immunohistochemistry (IHC). The macroscopic changes after LA at 60 mg/mL were similar to those described above. The tissue was dehydrated in graded ethanol and embedded in paraffin. Sections were cut on a microtome, dewaxed, and incubated with polyclonal primary antibodies against collagen I (Abcam 34710) or II (Abcam 34712). The antibodies were diluted 250 (collagen I) or 200 (collagen II) times in phosphate-buffered saline containing 1% bovine serum albumin. Incubation was done at room temperature for 60 min. The sections were then incubated for 30 min at room temperature with horseradish peroxidase-conjugated secondary antibodies (Mach 2 Uni HRP, Biocare Medical) and immunoreactivity was visualized using diaminobenzidine (Biocare Medical).

SMILES: CC(O)C(=O)O (stereo not shown) [LA, lactic acid]
- Fibrotic changes at sites of extradiscal administration (porcine NP and AF; 28-day follow-up, external 120 mg/mL): No fibrotic changes
- Histological changes of the NP (porcine NP and AF; 28-day follow-up, intradiscal 120 or 240 mg/mL): Dense bundles of fibrotic tissue
- NP size (macroscopic) (porcine NP and AF; 28 and 84 days after LA treatment vs normally appearing NP): reduction in NP size
- Histological changes of the NP (porcine NP and AF; 84-day follow-up, intradiscal 120 or 240 mg/mL): sclerosis (FIG. 9D-J), cystic degeneration (FIG. 9J), cartilaginous metaplasia (FIG. 9F, 9G), osteoid islands (FIG. 9F, 9G) and reduction in the extracellular matrix
- Histological changes of the NP (porcine NP and AF; two days after intradiscal injection): marked histological changes characterized by lysis of the extracellular matrix
- Hemorrhage and inflammatory changes, LA vs vehicle (porcine NP and AF; two-day follow up, intradiscal injection): not obviously more marked
- Collagen II immunoreactivity (collagen II): no clear difference
